Data from ChEMBL document CHEMBL6087385, “Synthesis and biological evaluation of Ribo 7-N/O/S pyrimidine 9-deaza C-nucleoside analogs as new antiviral agents for inhibiting HCV RNA-dependent RNA polymerases” (Eur J Med Chem, 2024).

Tests used:
[1] = Metabolic stability in cryopreserved rat hepatocyte assessed as half life in presence of NADPH; assay type: ADME, cell-based; settings: cryopreserved hepatocytes
[2] = Cmax in Sprague-Dawley rat at 1 mg/kg, iv by reverse phase chromatography; assay type: ADME, organism-based; settings: in vivo
[3] = AUC (0 to infinity) in Cynomolgus monkey at 1 mg/kg, iv by reverse phase chromatography; assay type: ADME, organism-based, Macaca fascicularis; settings: in vivo
[4] = Toxicity in Sprague-Dawley rat assessed as macroscopic examination at necroscopy at 100 mg/kg, po administered as single dose and measured after 14 days; assay type: organism-based; settings: in vivo, 336 h, time 14 day
[5] = Toxicity in Cynomolgus monkey assessed as change in ECG at 100 to 500 mg/kg, po administered as single dose; assay type: organism-based, Macaca fascicularis; settings: in vivo, dose 100-500 mg/kg

Molecule `C[C@@]1(O)[C@H](O)[C@@H](CO)O[C@H]1c1coc2c(N)ncnc12` has a half-life [1] of over 1 h, a Cmax [2] of 1150 ng/mL and an AUC(0-inf) [3] of 2340 ng·h/mL. For the same molecule, the Activity [4] was “Non-toxic” and the Activity [5] was “Non-toxic”.
